The test system of assay [1] is female Sprague Daley rats. The experiment in a line: Isovolumetric bladder contraction model (rat). Type of assay: in vivo. Particulars: single administration 1 mg/kg & 15 mg/kg, compared to vehicle. An excerpt:
11. Isovolumetric Bladder Contraction Model (Rat) The aim of this study was to test the efficacy of Compound Examples on bladder function, in particularly on contraction frequency/intercontraction interval and contraction magnitude/contraction amplitude. The experimental setup for performing the isovolumetric bladder measurements was adapted to a previous descripted protocol (Yoshiyama M, de Groat W C. Am J Physiol Regul Integr Comp Physiol 280: […]-[…], 2001). Strong presence and target induction of BDKRB1 in comparison to BDKRB2 has been verified by gene expression analysis in bladders removed from rats after performance of the isovolumetric bladder contraction model in contrast to bladders of naïve, untreated rats. Immunohistochemistry confirmed the presence of BDKRB1 in bladders of rats after contraction, too. […] At least five cycles of isovolumetric bladder contractions were recorded before the Compound Examples or vehicle alone (PEG400/Water (50/50(v/v))) were administered via the catheter in the Vena jugularis at different dosages. About 2 minutes after compound administration the next nine contraction cycles were recorded. The change in contraction amplitude and intercontraction interval of the recorded bladder pressure and bladder contractions was calculated by comparing the means before and after compound administration using GraphPad Prism 7 program.

In assay [2] the test system is Male Sprague Dawley rats. The experiment in a line: Rat CFA in vivo model (mechanical hyperalgesia, paw withdrawal threshold). The note with it: 2 hours post-compound. The method, then:
Male Sprague Dawley rats were used. Mechanical hyperalgesia was induced by injecting 25 μL of Complete Freund's Adjuvant (CFA) into the plantar surface of one hind paw. Mechanical hyperalgesia was measured using the Pressure Application Measurement apparatus (Ugo Basile, Gemonio, Italy). Briefly, a linearly increasing pressure was applied to an area of ˜50 mm^2 of the plantar side of the hind paw until a behavioural response (paw withdrawal) was observed or until the pressure reached 1000 gf. The pressure at which the behavioural response occurred was recorded as the “Paw Withdrawal Threshold” (PWT). Both CFA-injected and contralateral PWTs were determined for each rat, in each treatment group and at each time point of the studies. The Compound Examples were administered orally in a vehicle of dimethylsulfoxide (DMSO), Polyethylenglycol (PEG) and 2-hydroxypropyl-beta-cyclodextrin (HPCD) (v/v/v=3:20:77). Rats received a first dose of […] of Compound Example per kg body weight 1 hour before CFA injection and a second dose 24 hours after the CFA injection. Mechanical hyperalgesia testing was performed approximately 2 hours before CFA injection, then 2 and 4 hours after the second dose of Compound Example (i.e. 26 and 28 hours after CFA treatment). Data were expressed as the mean±S.D. Area Under the Curve (AUC) of PWTs (defined in table 3 as “AUC of Paw withdrawal threshold (AUC 0-4 hours) post-vehicle” with respect to vehicle group or “AUC of Paw withdrawal threshold (AUC 0-4 hours) post-drug” with respect to Compound Example). Data were analysed by performing a one-way ANOVA followed by a Dunnett's post hoc test. For p values less than 0.05 the results were deemed to be statistically significant.

Assay [3] concerns Female Brown Norway rats. The experiment in a line: Rat model for endometriosis, acute phase (4 day). The assay is classed as in vivo. The note with it: rat 4 day endometriosis model, once daily p.o. 1, 5, 15, 60 mg/kg. The method, then: 4. Rat Model for Endometriosis, Acute Phase Female Brown Norway rats (Charles-River) were treated p.o. with Compound Example 3 (doses: 1 mg/kg, 5 mg/kg, 15 mg/kg, 60 mg/kg) or vehicle alone (10% DMSO+90% phosphate buffered saline (PBS)). 2 h later all animals got under deep anesthesia a transplantation of 6 uterus pieces in the peritoneal cavity. The tissue was obtained from donor animals which were pre-treated with 3 μg s.c. Estradiol (E2) for 2 days to guarantee standardized conditions of the uterus tissue. The animals were treated once daily p.o. with Compound Example 3 (doses: 1 mg/kg, 5 mg/kg, 15 mg/kg, 60 mg/kg) or vehicle alone (10% DMSO+90% phosphate buffered saline (PBS). 4 days later the animals were sacrificed and the transplants as surrogate endometriosis lesion tissue were analyzed for markers of lesion activity (inflammatory cytokines and proliferation marker). This approach is mimicking the early inflammatory phase of endometriosis close to menstruation. Analysis For RNA expression analysis the lesions, were excised. RNA was isolated after homogenization of tissues in guanidinium thiocyanate using the RNeasy mini Kit (Qiagen) with DNase digestion. […] Relative mRNA levels were calculated using the comparative CT method using the RQ-Manager software (Applied Biosystems). […]

SMILES strings stand for the structures.

`O=C(O)c1cc(NC(=O)C2(c3ccc(C(F)(F)F)cc3F)CC2)ccc1-c1cnn(C2CCC2)c1` [Example 3, 2-(1-Cyclobutyl-1H-pyrazol-4-yl)-5-[({1-[2-fluoro-4-(trifluoromethyl)phenyl]cyclopropyl}carbonyl)amino]benzoic acid]: in assay [1], the “intercontraction interval (ICI)” value was “significant efficacy on prolonging”. For the same compound, in assay [1], the “maximal pressure of bladder contractions” value is on record as “remained unchanged”. The “Paw withdrawal threshold 2 hours post-compound” value is given as 659 ± 20 gf (ns) in assay [2] (0.75 mg/kg p.o.), 782 ± 50 gf (****) in assay [2] (3 mg/kg p.o.), 812 ± 44 gf (****) in assay [2] (15 mg/kg p.o.) and 885 ± 30 gf (****) in assay [2] (60 mg/kg p.o.). In addition, the “expression of proliferation marker (PCNA) in lesions” value in assay [3] (FIG. 1) is on record as “decreased”. For the same compound, the “expression of inflammatory cytokines in lesions (TNF alpha, IL-1 beta, IL-6)” value in assay [3] (FIG. 2-4) is on record as “decreased”.

(Values after patent US12023319B2, “Carboxylic acid aromatic amides” (priority 2016, dated 2024).)
